Assay results from publication PMC10447463, “Data-mining unveils structure–property–activity correlation of viral infectivity enhancing self-assembling peptides” (Nature Communications, 2023).
Like-named read-outs stand apart in the source and are kept apart here.

Tests used:
[1] = Turbidity, derived count rate of scattered light; assay type: physicochemical; conditions: for Count Rate: derived count rate of scattered light (turbidity); for Log10 Count Rate: turbidity, derived count rate of scattered light, data of Figure 2D
[2] = assay type: physicochemical; design: key to Fibril / Fibril Formation / TEM 2cat / Fibril: 1 = fibrils present; 0 non-fibrillar structures; conditions: for Fibril / Fibril Formation: 1 mg/mL, uranyl acetate stain, qualitative
[3] = Zeta-potential measurement; assay type: physicochemical; conditions: for Zeta pot. / mV: 1 mg/mL in PBS pH 7.4 from 10 mg/mL DMSO stock, 1 d RT, 60 µL diluted in 600 µL 1 mM KCl, Zetasizer Nano ZS, Smoluchowski, mean of triplicate
In short: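 PBS pH 7.4, 1 mg/mL peptide (DMSO stock), 1 d RT aggregation; diluted in 1 mM KCl pre-read; mobility → zeta (Smoluchowski); n = 3, 2 expts averaged.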

[4] = Turbidity, derived count rate of scattered light; assay type: physicochemical; conditions: for Count Rate / kcps: derived count rate of scattered light at 633 nm, 173°, from zeta-potential measurement, 0.1 mg/mL in 1 mM KCl after 1 d at 1 mg/mL in PBS, turbidity / microscopic aggregation, mean of triplicate; for Zeta Count Rate: peptides with TEM 2cat 0
In short: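 One-day room-temperature aggregation at 1 mg/mL in PBS (pH 7.4) preceded measurement; samples then went into 1 mM KCl. Triplicates per sample, two independent experiments averaged.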

[5] = Fig S10 panel D, fibril category by TEM
[6] = TEM, 1 = fibrils present, 0 = non-fibrillar
[7] = TEM, 1 = fibrils present, 0 = non-fibrillar structures
[8] = category: fibrils present or non-fibrillar
[9] = zeta-potential of peptide, source data of Figure 2C
[10] = zeta-potential of the peptide assemblies, mean, Figure 3A source data
[11] = Log10 of derived count rate of scattered light (turbidity)
[12] = log10 of derived count rate of scattered light (turbidity)
[13] = turbidity, Log10 of derived count rate of scattered light, Figure 3A source data
[14] = FigS12 panel A, fibril category by TEM
[15] = zeta potential of peptide assemblies
[16] = logarithm of count rate in kcps

Row | Substance | Count Rate [1] | Log10 Count Rate [1] | TEM 2cat [2, 5] | Fibril ([2]; Fig S10 panel E) | Fibril / Fibril Formation ([2]; TEM) | Fibril [2, 6] | Fibril [2, 7] | TEM 2cat [2, 8] | Zeta-Pot. [3] | Zeta-Potential / mV [3, 9] | Zeta-Potential / mV [3, 10] | Log10 Count Rate [4, 11] | Count Rate / kcps [4] | Log10 Count Rate [4, 12] | Log10 Count Rate [4, 13] | TEM 2cat [2, 14] | Fibril ([2]; FigS12 panel B, TEM) | Zeta-Pot. [3, 15] | also measured
1 | EIEIQINMWQ | 1264 | 3.102 | 0 | 0 | 0 | 0 | 0 | 0 | -19.13 | -19.93 mV | -19.13 mV | 3.102 | 1264 kcps | 3.102 | 3.102 |  |  |  | Zeta Count Rate [4]: 1264 kcp
2 | EIKIQINM | 2816 | 3.45 | 1 | 1 | 1 | 1 | 1 |  | -22.33 | -20.62 mV | -22.33 mV | 3.45 | 2816 kcps | 3.45 | 3.45 | 1 | 1 |  | 
3 | HHHHKAKAKAKAWWWW | 658.9 | 2.8188 | 0 |  | 0 | 0 | 0 |  | 17.4 | 12.25 mV | 17.4 mV | 2.8188 | 659 kcps | 2.8188 | 2.8188 | 0 | 0 |  | 
4 | HHHHKAKAKAKAYYYY | 240.9 | 2.382 | 0 |  | 0 | 0 | 0 |  |  | 4.787 mV | 7.03 mV | 2.382 | 241 kcps | 2.382 | 2.382 | 0 | 0 | 7.03 | 
5 | HHHHKIKIKIKIWWWW | 23756.66667 | 4.376 | 0 | 0 | 0 | 0 | 0 | 0 |  | 14.42 mV | 14.5 mV | 4.376 | 23757 kcps | 4.376 | 4.376 |  |  | 14.5 | Log10 Count Rate [4, 16]: 4.376; Zeta Count Rate [4]: 23757 kcp
6 | HHHHKIKIKIKIYYYY | 12792.53333 | 4.107 | 0 |  | 0 | 0 | 0 | 0 |  | 12.88 mV | 13.2 mV | 4.107 | 12793 kcps | 4.107 | 4.107 |  |  | 13.2 | Log10 Count Rate [4, 16]: 4.107; Zeta Count Rate [4]: 12793 kcp
7 | HHHHKIKIQINMYYYY | 5659 | 3.753 | 1 | 1 | 1 | 1 | 1 | 1 |  | 7.147 mV | 7.81 mV | 3.753 | 5659 kcps | 3.753 | 3.753 |  |  | 7.807 | Log10 Count Rate [4, 16]: 3.753
8 | IKVAVKIKIQINM | 4848 | 3.686 | 1 |  | 1 | 1 | 1 | 1 | 14.5 | 14.18 mV | 14.5 mV | 3.686 | 4848 kcps | 3.686 | 3.686 |  |  |  | 
9 | ILKNLSRSRKIKIQIC | 2392 | 3.379 | 1 |  | 1 | 1 | 1 | 1 |  | 19.25 mV | 18 mV | 3.379 | 2392 kcps | 3.379 | 3.379 |  |  | 18 | 
10 | ILKNLSRSRKIKIQINMWQ | 306.5 | 2.486 | 1 |  | 1 | 1 | 1 | 1 | 19.2 | 17.9 mV | 19.2 mV | 2.486 | 307 kcps | 2.486 | 2.486 |  |  |  | 
11 | KAKAKAQA | 76.93 | 1.886 | 0 |  | 0 | 0 | 0 |  |  | -5.297 mV | -9.01 mV | 1.886 | 77 kcps | 1.886 | 1.886 | 0 | 0 | -9.01 | 
12 | KAKAQANM | 42.5 | 1.628 | 0 |  | 0 | 0 | 0 |  |  | -2.065 mV | -2.62 mV | 1.628 | 43 kcps | 1.628 | 1.628 | 0 | 0 | -2.62 | Zeta pot. / mV [3]: -2.6 mV; Log10 Count Rate [4, 16]: 1.6
13 | KFKFEFEF | 2186 | 3.34 | 1 |  | 1 | 1 | 1 |  |  | -2.87 mV | -2.55 mV | 3.34 | 2186 kcps | 3.34 | 3.34 | 1 | 1 | -2.55 | 
14 | KFKFKFQF | 1036 | 3.015 | 1 | 1 | 1 | 1 | 1 | 1 |  | 16.32 mV | 15.2 mV | 3.015 | 1036 kcps | 3.015 | 3.015 |  |  | 15.2 | 
15 | KFKFQFF | 37.77 | 1.577 | 1 |  | 1 | 1 | 1 | 1 |  | 6.903 mV | 6.9 mV | 1.577 | 38 kcps | 1.577 | 1.577 |  |  | 6.903 | 
16 | KFKFQFFF | 3039 | 3.483 | 1 | 1 | 1 | 1 | 1 | 1 |  | 15.57 mV | 13.27 mV | 3.483 | 3039 kcps | 3.483 | 3.483 |  |  | 13.27 | 
17 | KFKFQFN | 50.7 | 1.705 |  |  | 1 | 1 | 1 |  | 12.7 | 10.12 mV | 12.7 mV | 1.705 | 51 kcps |  | 1.705 | 1 | 1 |  | TEM 2cat ([2]; Fig S10 panel D): 1; Zeta pot. / mV [3]: 12.7 mV; Log10 Count Rate [4, 16]: 1.7; Log10 Count Rate ([4]; turbidity, log10 of derived count rate of scattered light): 1.705
